Broadly, the % Inhibition is the relative decrease from the control value, in per cent.

The assay has as its system Streptococcus pyogenes (ATCC# 97-03 14289). Put plainly: Anti-microbial screen (growth inhibition, OD 570 nm). Type of assay: cell-based. To be noted: growth in Todd Hewitt Broth, plates read at 570 nm at 0 time and 4 hours, color corrected. How it is done: Streptococcus pyogenes (ATCC# 97-03 14289) was grown in Todd Hewitt Broth (THB) (Difco Laboratories #0492-17-6) overnight until reaching an optical density of (OD=0.636 @ 570 nm) by reading 0.1 ml in a 96 well microtiter plate in a Molecular Devices Thermomax. This preparation was kept frozen as stocks in 30% v/v glycerol in 1.5 ml aliquots at −70^mC. until use. Prior to experiments, […] aliquots were thawed and diluted into 50 ml 2×THB. 60 ul of this dilution was added to 92 wells of microtiter plate. To three wells THB (200 ul) was added to serve as a blank and a sterility control. Test compounds in DMSO and appropriate concentrations of DMSO were added to Growth/Solvent Controls at 0 time. Plates were read at 0 time at 570 nm in the Molecular Devices plate reader to obtain compounds correction factors for insoluble or colored compounds. Plates were read again at 4 hours.
Percent inhibition is calculated with the following formulae: [drawing 4]
Color correct=O.D. 0 hr−Blank 0 hr)−(Solvent Control 0 hr−Blank 0 hr)
% Inhibition=100−O.D. test compound 4 hr−Blank 4 hr−color correct O.D. growth/solvent control 4 hr−Blank 4 hr
`O=C(Nc1sc2c(c1C(=O)O)CCN(C(=O)CCc1ccc(F)c(F)c1)C2)c1ccccc1Cl`: the “% Inhibition” value is recorded as 94.52%. With `CCCSc1ncccc1C(=O)N1CCc2c(sc(NC(=O)c3ccc(CC)cc3)c2C(=O)O)C1` the figure was 92.01%. With `CCCc1ccc(C(=O)Nc2sc3c(c2C(=O)O)CCN(C(=O)c2ccc(F)c(F)c2)C3)cc1` the figure was 86.71%; with `Cc1ccc(C(=O)N2CCc3c(sc(NC(=O)c4ccc(C(C)(C)C)cc4)c3C(=O)O)C2)cn1`, 74.64%. With `CCC(C(=O)Nc1sc2c(c1C(=O)O)CCN(C(=O)Cc1cc(C)ccc1C)C2)c1ccccc1` (stereo not drawn) the figure was 80.75%. As to `CSc1ccccc1C(=O)N1CCc2c(sc(NC(=O)c3ccccc3)c2C(=O)O)C1`, the “% Inhibition” value turned out to be 79.15%. Consider `CC(C)(C)c1ccc(C(=O)Nc2sc3c(c2C(=O)O)CCN(C(=O)c2ccsc2)C3)cc1`, for which the “% Inhibition” value is 82.18%. In the case of `CC(C)(C)c1ccc(C(=O)Nc2sc3c(c2C(=O)O)CCN(C(=O)c2ccccc2Cl)C3)cc1` it was 89.72%; in that of `O=C(Nc1sc2c(c1C(=O)O)CCN(C(=O)c1cccc3ccccc13)C2)c1ccccc1`, 83.81%; in that of `CCCCOc1ccc(C(=O)Nc2sc3c(c2C(=O)O)CCN(C(=O)c2cc4ccccc4s2)C3)cc1`, 89.4%.

As for `Cc1ccc(C)c(CC(=O)N2CCc3c(sc(NC(=O)c4ccccc4)c3C(=O)O)C2)c1`, the “% Inhibition” value is listed as 86.14%.

`CC(C)(C)c1ccc(C(=O)Nc2sc3c(c2C(=O)O)CCN(C(=O)C2CCCCC2)C3)cc1`: the “% Inhibition” value worked out at 59.89%. For the compound `COc1cc(Cl)ccc1C(=O)N1CCc2c(sc(NC(=O)c3c(F)cccc3F)c2C(=O)O)C1`, the “% Inhibition” value worked out at 59.98%. On to `CC(C)C(=O)N1CCc2c(sc(NC(=O)c3ccc4ccccc4c3)c2C(=O)O)C1`, for which the “% Inhibition” value was found to be 65.78%.

For `O=C(Nc1sc2c(c1C(=O)O)CCN(C(=O)c1ccccc1Cl)C2)c1ccc(Cl)cc1`, the “% Inhibition” value is 62.91%. With `Cc1c(F)cccc1C(=O)N1CCc2c(sc(NC(=O)C3CCCCC3)c2C(=O)O)C1` the figure was 63.92%; with `CCc1ccc(C(=O)Nc2sc3c(c2C(=O)O)CCN(C(=O)c2ccc(Cl)cc2OC)C3)cc1`, 62.84%; with `O=C(Nc1sc2c(c1C(=O)O)CCN(C(=O)c1cccc(Cl)c1)C2)c1c(F)cccc1F`, 77.03%. `O=C(Nc1sc2c(c1C(=O)O)CCN(C(=O)C1CCC1)C2)c1ccc2ccccc2c1`: the “% Inhibition” value is given as 59.86%. Turning to `Cc1ccccc1C(=O)N1CCc2c(sc(NC(=O)C3CCCCC3)c2C(=O)O)C1`, the “% Inhibition” value amounted to 69.29%.

`CCc1ccc(C(=O)Nc2sc3c(c2C(=O)O)CCN(C(=O)c2cccnc2SC)C3)cc1`: the “% Inhibition” value worked out at 63.83%. For the compound `Cc1ccc(C(=O)N2CCc3c(sc(NC(=O)c4ccc5ccccc5c4)c3C(=O)O)C2)cn1`, the “% Inhibition” value turned out to be 62.67%. With `O=C(Nc1sc2c(c1C(=O)O)CCN(C(=O)CCc1ccc(F)c(F)c1)C2)c1ccccc1` the figure was 74.96%. In the case of `COc1cccc(C(=O)Nc2sc3c(c2C(=O)O)CCN(C(=O)c2ccccc2SC)C3)c1` it was 64.5%. With `Cc1ccsc1C(=O)N1CCc2c(sc(NC(=O)c3ccc(C(C)(C)C)cc3)c2C(=O)O)C1` the figure was 68.74%; with `CC(C)C(=O)N1CCc2c(sc(NC(=O)c3ccc(C(C)(C)C)cc3)c2C(=O)O)C1`, 77.26%. As to `O=C(CCC1CCCC1)Nc1sc2c(c1C(=O)O)CCN(C(=O)c1cccc3ccccc13)C2`, the “% Inhibition” value worked out at 82.49%. On to `CCCc1ccc(C(=O)Nc2sc3c(c2C(=O)O)CCN(C(=O)c2cccnc2SC)C3)cc1`, for which the “% Inhibition” value worked out at 86.05%. In the case of `COc1cccc(C(=O)Nc2sc3c(c2C(=O)O)CCN(C(=O)c2cccc(F)c2C)C3)c1` it was 73.59%; in that of `COc1cccc(C(=O)Nc2sc3c(c2C(=O)O)CCN(C(=O)c2ccccc2C(F)(F)F)C3)c1`, 73.59%.

Source of the values: patent publication US20030232994A1, “Bicyclic thiophene derivatives and combinatorial libraries thereof” (priority 2001, published 2003).
